{"source": "patent US6686317B2", "about": "“Supported fluridone compositions and methods” (SePro Corporation, priority 2001, dated 2004)", "origin": "cited, not measured here", "tested_on": "aquatic plants", "note": "Where two headings read alike, the source gives them in different places.", "data": [{"substance": "1-methyl-3-phenyl-5-3-(trifluoromethyl)phenyl-4(1H)-pyridinone [fluridone]", "values": [{"measurement": "concentration to which plant species are usually susceptible", "setting": "other species susceptible only to higher concentrations", "result": 150, "unit": "ppb"}, {"measurement": "concentration to which plant species are usually susceptible", "setting": "some (more susceptible) species, as low as", "result": "about 5 ppb"}]}]}
